Results taken from patent publication US5104889A, “Thiazole derivatives” (Otsuka Pharmaceutical Factory, Inc., priority 1986, dated 1992).
Values after ≈ are worked out from the molar mass of the structure shown.

Test system: fetal bovine heart-derived endothelial cells (FBHE cells)
Experiment: Angiogenesis inhibiting activity test: inhibition of proliferation of cultured FBHE cells (neutral red uptake, 3 days)
Assay type: cell-based
Settings: for IC50: Bos taurus, Endothelial cell, 3 days incubation, 10% FBS-added DME, 0.05% DMSO; for IC50 / FGF-/FGF+ ratio: FBHE cells; for FGF-/FGF+ ratio: ratio of IC50 without FGF to IC50 with FGF, 4320 min
Procedure: For use in this test, FBHE cells purchased from the ATCC were maintained by subculturing in a medium prepared by adding 20 ng/ml of fibroblast growth factor (FGF; Collaborative Research) to Dulbecco's modified Eagle's medium (DME; Nissui Seiyaku) supplemented with 10% fetal bovine serum (FBS). From two days before the start of the experiment, the addition of FGF was omitted and FBHE cells were cultured in DME with 10% FBS alone added. At the start of the experiment, the culture medium was removed, phosphate-buffered saline solution (PBS^(-); Nissui Seiyaku) was added instead, and cells were rinsed lightly. Then the PBS^(-) was removed, an adequate amount of 0.1% EDTA-0.2% trypsin solution was added and, after light rinsing, removed, and cells were stripped off. After addition of 10% FBS-added DME and sufficient pipetting, the cells stripped off were transferred to a centrifugal tube and centrifuged for washing (1,200 rpm, 5 minutes). The viable cell count was determined using a hemocytometer with the number of dead cells stained with trypan blue being substracted. The cell concentration was adjusted to 3×10^3 cells/well using 10% FBS-added DME. A cell suspension was thus prepared. […] For attaining test substance concentrations, serial double dilution was performed starting with 10 μg/ml. The following procedure was followed. Thus, to each well of 96-well Multiplates (Corning), there was added 50 μl of DME containing 10% FBS. Then, 50 μl of each test substance solution having the highest final concentration of 10 μg/ml was added to the well for the highest concentration and then serial dilution was carried out on each plate. Furthermore, 50 μl of FGF (5 ng/ml at maximum) was added to each well, followed by final addition of 100 μl of the cell suspension. The plates prepared by the above procedure were incubated in a carbon dioxide gas incubator for 3 days. After 3 days of incubation, neutral red was added to each well and the cells were allowed to take up the dye by 2 hours incubation in a carbon dioxide gas incubator. Thereafter, the cells were rinsed twice with PBS^(-) or physiological saline. Finally, 100 μl of acid alcohol (a 1:1 mixed solution prepared from 0.1 M aqueous monosodium phosphate solution and ethanol) was added to each well for dissolution thereinto of the dye taken up, and the absorbance of the resultant dye solution was determined using an absorptiometer. The absorbance values measured by the above procedure (3) for each dilution of each test substance with addition of FGF and without addition of FGF (normal condition) were plotted on a graph paper, and the test substance concentration required for 50% inhibition of the proliferation of cultured FBHE cells was determined from the graph obtained and expressed as an IC50 value.

[1] = 72 h, with addition of FGF (5 ng/ml at maximum)
[2] = 72 h, without addition of FGF (normal condition)

| SMILES | IC50 [1] | IC50 [2] | FGF-/FGF+ ratio | IC50 FGF- (72 h) |
| --- | --- | --- | --- | --- |
| CC(C)(C)c1cc(Nc2nccs2)cc(C(C)(C)C)c1O [Example 2, 2,6-Di-tert-butyl-4-[(2-thiazolyl)amino]phenol] | 0.89 mg/L (≈ 2.92 µM) | 10.7 mg/L (≈ 35.1 µM) | 12.0 |  |
| CCCCCc1sc(Nc2cc(C(C)(C)C)c(O)c(C(C)(C)C)c2)nc1C [Example 6] | 2.18 mg/L (≈ 5.61 µM) | 9.21 mg/L (≈ 23.7 µM) | 4.2 |  |
| Cc1nc(Nc2cc(C(C)(C)C)c(O)c(C(C)(C)C)c2)sc1C [Example 11, 2,6-Di-tert-butyl-4-[(4,5-dimethyl-2-thiazolyl)amino]phenol] | 6.14 mg/L (≈ 18.5 µM) |  | 4.2 | 25.94 mg/L (≈ 78 µM) |
| CCSc1sc(Nc2cc(C(C)(C)C)c(O)c(C(C)(C)C)c2)nc1C [Example 12, 2,6-Di-tert-butyl-4-[(4-methyl-5-ethylthio-2-thiazolyl)amino]phenol] | 1.55 mg/L (≈ 4.09 µM) | 6.53 mg/L (≈ 17.2 µM) | 4.2 |  |
| CCOC(=O)c1sc(Nc2cc(C(C)(C)C)c(O)c(C(C)(C)C)c2)nc1C [Example 18, 2,6-Di-tert-butyl-4-[(4-methyl-5-ethoxycarbonyl-2-thiazolyl)amino]phenol] | 1.92 mg/L (≈ 4.92 µM) | 11.9 mg/L (≈ 30.5 µM) | 6.2 |  |
| CC(C)(C)c1cc(Nc2nc(CO)cs2)cc(C(C)(C)C)c1O.Cl.Cl [Example 25, 2,6-di-tert-butyl-4-[(4-hydroxymethyl-2-thiazolyl)amino]phenol dihydrochlo ride] | 0.92 mg/L | 5.76 mg/L | 6.3 |  |
| CC(C)(C)c1cc(Nc2nc(C(=O)NN)cs2)cc(C(C)(C)C)c1O [Example 35, 2,6-di-di-tert-butyl-4-[(4-carbazoyl-2-thiazolyl)amino]phenol] | 0.61 mg/L (≈ 1.68 µM) | 3.66 mg/L (≈ 10.1 µM) | 6.0 |  |
| CCOC(=O)c1csc(Oc2cc(C(C)(C)C)c(O)c(C(C)(C)C)c2)n1 [Example 40, 2,6-di-tert-butyl-4-[(4-ethoxycarbonyl-2-thiazolyl)oxy]phenol] | 0.74 mg/L (≈ 1.96 µM) | 5.72 mg/L (≈ 15.2 µM) | 7.7 |  |
| CC(C)(C)c1cc(Sc2nccs2)cc(C(C)(C)C)c1O [Example 42, 2,6-Di-tert-butyl-4-(2-thiazolylthio)phenol] | 1.85 mg/L (≈ 5.75 µM) | 8.71 mg/L (≈ 27.1 µM) | 4.7 |  |
